The source of these data is article PMC3693772, “Protein expression, biochemical pharmacology of signal transduction, and relation to intraocular pressure modulation by bradykinin B2 receptors in ciliary muscle” (Molecular Vision, 2013).

Like-named read-outs stand apart in the source and are kept apart here.

Test [1] relates to CHO-B2 cells. Format: cell-based, Chinese hamster ovary cells, human cloned B2 receptor. As to conditions: 1 h at 37 °C; enzyme immunoassay; mean ± SEM, 3 to 6 experiments; read-out: PGF2α production in CHO-B2 cells (EC50).
Description: Measurement of prostaglandins in human ciliary muscle and Chinese hamster ovary cells expressing B2 receptors
This involved stimulating h-CM cells and CHO-B2 cells with various concentrations of test peptides and measuring the release of various PGs in the extracellular medium. The concentration-dependent effects of these peptides on total PGs, and specifically PGE2, PGF2α, and PGD2 release, were studied. Cells were grown as a monolayer in a 24-well plate (precoated with fibronectin) to confluence and subsequently serum-starved overnight before the experiment. On the day of the experiment, just before the drug was added, the wells were aspirated completely, and 990 µl basal medium and 10 µl 100× series of concentrations of the different peptide agonists were added to achieve the desired final concentrations of each compound (e.g., 0.1 nM to 10 µM). […] At the end of the incubation period, the cellular supernatants were collected and stored at −80 °C or used immediately to determine the PG content. Cell supernatants were tested for total PG levels and sub-species of PGs (PGE2, PGF2α, and PGD2) using specific competitive enzyme immunoassays (Cayman Chemical Co., Ann Arbor, MI) as directed in the manufacturer’s recommended protocols using the supplied standards and reagents. The limits of detection for various PGs were as follows: total PGs=29 pg/ml; PGE2=15 pg/ml; PGF2α=9 pg/ml; PGD2=200 pg/ml.
Test [2] concerns certain endothelial and neuronal cells. Conditions: ref [3],[28]; cited from earlier work.
For test [3], the system named is primary h-TM cells. Format: cell-based, human. Conditions: preliminary data, values rounded-off, read-out: Agonist potency at stimulating [Ca^2+]i mobilization in primary h-TM cells (EC50).
Test [4] relates to isolated perfused bovine eyes. As to conditions: ref [16]; cited from earlier work. An excerpt:
(§1) Despite the presence of the kallikrein/kinin enzyme and receptor system in the h-CM tissue and cells, with B2-receptor immunoreactivity also found in the cynomolgus monkey CM (Figure 2B), the physiologic roles of BK and its receptors in this tissue and cells remain to be elucidated. Indeed, there are conflicting reports in the literature regarding the functions and involvement of BK in modulating IOP in various animal models.

The conditions of test [5]: cited from earlier work.
Description: as §1

Test [6] deals with cynomolgus monkey eyes. As to conditions: intracameral, ref [12], cited from earlier work.
Description: as §1

In test [7] the test system is albino rabbits. As to conditions: topical dosing, ref [8]; cited from earlier work.
Description: as §1

The test system of test [8] is isolated perfused human and bovine anterior eye segments. Conditions: ref [15]; cited from earlier work.
Description: as §1

Where [9] appears, read: intracameral injection, ref [10],[14].

With H-RPPGFSPFR-OH [BK], the EC50 – broadly, the concentration giving half of the maximal effect – in test [1] is 0.0321 ± 0.0122 nM; in test [3], 1 nM. Also, the “Production of NO and cGMP” value in test [2] was “can elicit production of NO and cGMP”. Also, the Outflow entry in test [4] was “apparent increase in outflow”. Besides, the IOP effect result in test [5] (setting [9]) was “raised IOP”; in test [5] (intravenous infusion, ref [9]) it was “lowered IOP”; in test [7], “lowered IOP”. Also, the Pupil effect result in test [5] (setting [9]) is reported as “caused intense miosis”. In addition, the “Aqueous humor inflow and outflow” value in test [5] (ref [11]) is “increased aqueous humor inflow and outflow”. Moreover, the values for the Aqueous humor outflow result in test [6] (no ciliary muscle retrodisplacement) and in test [6] (with ciliary muscle retrodisplacement) were “no effect on aqueous humor outflow” and “decreased outflow”, respectively. The Outflow facility result in test [8] was “decreased outflow facility”.
